The compounds below were run on GM1 production in Jurkat cells (assay: cells). Details: Homo sapiens, Jurkat, 72 h.
Format: cell-based
Work on `CC(C)COc1ccc(-c2ccc3c(c2)CC(C)(C)C3NC(=O)O[C@@H]2CN3CCC2CC3)cc1` (stereo partly drawn) [Example 136, (S)-quinuclidin-3-yl (5-(4-isobutoxyphenyl)-2,2-dimethyl-2,3-dihydro-1H-inden-1-yl)carbamate] yielded an IC50 of 1.7 nM.
For `CC1(C)Cc2cc(-c3ccsc3)ccc2C1NC(=O)O[C@@H]1CN2CCC1CC2` (stereo partly drawn) [Example 137, (S)-quinuclidin-3-yl (2,2-dimethyl-5-(thiophen-3-yl)-2,3-dihydro-1H-inden-1-yl)carbamate], the IC50 was 12.1 nM.
`Cc1cscc1-c1ccc2c(c1)CC(C)(C)C2NC(=O)O[C@@H]1CN2CCC1CC2` (stereo partly drawn) [Example 138, (S)-quinuclidin-3-yl (2,2-dimethyl-5-(4-methylthiophen-3-yl)-2,3-dihydro-1H-inden-1-yl)carbamate] gave an IC50 of 9.1 nM.
`CN(C)CCOc1cccc(-c2ccc3c(c2)CC(C)(C)C3NC(=O)O[C@@H]2CN3CCC2CC3)c1` (stereo partly drawn) [Example 139, (S)-quinuclidin-3-yl (5-(3-(2-(dimethylamino)ethoxy)phenyl)-2,2-dimethyl-2,3-dihydro-1H-inden-1-yl)carbamate] showed an IC50 of 74.4 nM.
`CC1(C)Cc2cc(-c3cccc4ccncc34)ccc2C1NC(=O)O[C@@H]1CN2CCC1CC2` (stereo partly drawn) [Example 140, (S)-quinuclidin-3-yl (5-(isoquinolin-8-yl)-2,2-dimethyl-2,3-dihydro-1H-inden-1-yl)carbamate] was tested, and the IC50 was 10.5 nM.
For `CC1(C)Cc2cc(-c3cccc4cnccc34)ccc2C1NC(=O)O[C@@H]1CN2CCC1CC2` (stereo partly drawn) [Example 141, (S)-quinuclidin-3-yl (5-(isoquinolin-5-yl)-2,2-dimethyl-2,3-dihydro-1H-inden-1-yl)carbamate], the IC50 was 39.9 nM.
For `CC1(C)Cc2cc(-c3cncc4ccccc34)ccc2C1NC(=O)O[C@@H]1CN2CCC1CC2` (stereo partly drawn) [Example 142, (S)-quinuclidin-3-yl (5-(isoquinolin-4-yl)-2,2-dimethyl-2,3-dihydro-1H-inden-1-yl)carbamate], the IC50 was 20.5 nM.
Work on `CC(C)Oc1ccc(-c2ccc3c(c2)CC(C)(C)C3NC(=O)O[C@@H]2CN3CCC2CC3)cc1` (stereo partly drawn) [Example 144, (S)-quinuclidin-3-yl (5-(4-isopropoxyphenyl)-2,2-dimethyl-2,3-dihydro-1H-inden-1-yl)carbamate] yielded an IC50 of 6.2 nM.
Work on `CC(C)Oc1ccccc1-c1ccc2c(c1)CC(C)(C)C2NC(=O)O[C@@H]1CN2CCC1CC2` (stereo partly drawn) [Example 145, (S)-quinuclidin-3-yl (5-(2-isopropoxyphenyl)-2,2-dimethyl-2,3-dihydro-1H-inden-1-yl)carbamate] yielded an IC50 of 23 nM.
Compound `CC(C)(C)c1ccc(-c2ccc3c(c2)CC(C)(C)C3NC(=O)O[C@@H]2CN3CCC2CC3)cc1` (stereo partly drawn) [Example 146, (S)-quinuclidin-3-yl (5-(4-(tert-butyl)phenyl)-2,2-dimethyl-2,3-dihydro-1H-inden-1-yl)carbamate] has an IC50 of 14.1 nM.
With `CCc1ccc(-c2ccc3c(c2)CC(C)(C)C3NC(=O)O[C@@H]2CN3CCC2CC3)cc1` (stereo partly drawn) [Example 147, (S)-quinuclidin-3-yl (5-(4-ethylphenyl)-2,2-dimethyl-2,3-dihydro-1H-inden-1-yl)carbamate] the IC50 was 14 nM.
In the case of `CC1(C)Cc2cc(-c3ccc(N4CCOCC4)cc3)ccc2C1NC(=O)O[C@@H]1CN2CCC1CC2` (stereo partly drawn) [Example 148, (S)-quinuclidin-3-yl (2,2-dimethyl-5-(4-morpholinophenyl)-2,3-dihydro-1H-inden-1-yl)carbamate], the IC50 is reported as 30 nM.
Compound `COCc1ccc(-c2ccc3c(c2)CC(C)(C)C3NC(=O)O[C@@H]2CN3CCC2CC3)cc1` (stereo partly drawn) [Example 149, (S)-quinuclidin-3-yl (5-(4-(methoxymethyl)phenyl)-2,2-dimethyl-2,3-dihydro-1H-inden-1-yl)carbamate] has an IC50 of 27.6 nM.
For `CC1(C)Cc2cc(-c3ccc(OCC(F)F)cc3)ccc2C1NC(=O)O[C@@H]1CN2CCC1CC2` (stereo partly drawn) [Example 150, (S)-quinuclidin-3-yl (5-(4-(2,2-difluoroethoxy)phenyl)-2,2-dimethyl-2,3-dihydro-1H-inden-1-yl)carbamate], the IC50 was 6.8 nM.
For `Cc1cc(-c2ccc3c(c2)CC(C)(C)C3NC(=O)O[C@@H]2CN3CCC2CC3)ccc1N1CCOCC1` (stereo partly drawn) [Example 151, (S)-quinuclidin-3-yl (2,2-dimethyl-5-(3-methyl-4-morpholinophenyl)-2,3-dihydro-1H-inden-1-yl)carbamate], the IC50 was 37.9 nM.
`CC1(C)Cc2cc(-c3ccc(N4CCOCC4)c(F)c3)ccc2C1NC(=O)O[C@@H]1CN2CCC1CC2` (stereo partly drawn) [Example 152, (S)-quinuclidin-3-yl (5-(3-fluoro-4-morpholinophenyl)-2,2-dimethyl-2,3-dihydro-1H-inden-1-yl)carbamate] was tested, and the IC50 was 32.5 nM.
Work on `CC1(C)Cc2cc(-c3ccc(N4CCOCC4)c(Cl)c3)ccc2C1NC(=O)O[C@@H]1CN2CCC1CC2` (stereo partly drawn) [Example 153, (S)-quinuclidin-3-yl (5-(3-chloro-4-morpholinophenyl)-2,2-dimethyl-2,3-dihydro-1H-inden-1-yl)carbamate] yielded an IC50 of 41.4 nM.
`CC1(C)Cc2cc(-c3ccc4c(c3)OCCCO4)ccc2C1NC(=O)O[C@@H]1CN2CCC1CC2` (stereo partly drawn) [Example 154, (S)-quinuclidin-3-yl (5-(3,4-dihydro-2H-benzo[b][1,4]dioxepin-7-yl)-2,2-dimethyl-2,3-dihydro-1H-inden-1-yl)carbamate] gave an IC50 of 27.4 nM.
For `CC1(C)Cc2cc(-c3cccc(C(F)F)c3)ccc2C1NC(=O)O[C@@H]1CN2CCC1CC2` (stereo partly drawn) [Example 155, (S)-quinuclidin-3-yl (5-(3-(difluoromethyl)phenyl)-2,2-dimethyl-2,3-dihydro-1H-inden-1-yl)carbamate], the IC50 was 8.4 nM.
`CC1(C)Cc2cc(-c3cccc4cccnc34)ccc2C1NC(=O)O[C@@H]1CN2CCC1CC2` (stereo partly drawn) [Example 156, (S)-quinuclidin-3-yl (2,2-dimethyl-5-(quinolin-8-yl)-2,3-dihydro-1H-inden-1-yl)carbamate] gave an IC50 of 46.7 nM.
`CC1(C)Cc2cc(-c3coc4ccccc34)ccc2C1NC(=O)O[C@@H]1CN2CCC1CC2` (stereo partly drawn) [Example 157, (S)-quinuclidin-3-yl (5-(benzofuran-3-yl)-2,2-dimethyl-2,3-dihydro-1H-inden-1-yl)carbamate] gave an IC50 of 2.8 nM.
With `CC1(C)Cc2cc(-c3cc4ccccc4o3)ccc2C1NC(=O)O[C@@H]1CN2CCC1CC2` (stereo partly drawn) [Example 158, (S)-quinuclidin-3-yl (5-(benzofuran-2-yl)-2,2-dimethyl-2,3-dihydro-1H-inden-1-yl)carbamate] the IC50 was 17.1 nM.
`COc1ccc(-c2ccc3c(c2)CC(C)(C)C3NC(=O)O[C@@H]2CN3CCC2CC3)cc1` (stereo partly drawn) [Example 159, (S)-quinuclidin-3-yl (5-(4-methoxyphenyl)-2,2-dimethyl-2,3-dihydro-1H-inden-1-yl)carbamate] showed an IC50 of 12.7 nM.
Compound `CCOc1ccc(-c2ccc3c(c2)CC(C)(C)C3NC(=O)O[C@@H]2CN3CCC2CC3)cc1` (stereo partly drawn) [Example 160, (S)-quinuclidin-3-yl (5-(4-ethoxyphenyl)-2,2-dimethyl-2,3-dihydro-1H-inden-1-yl)carbamate] has an IC50 of 22.7 nM.
`CC(C)Cc1ccc(-c2ccc3c(c2)CC(C)(C)C3NC(=O)O[C@@H]2CN3CCC2CC3)cc1` (stereo partly drawn) [Example 161, (S)-quinuclidin-3-yl (5-(4-isobutylphenyl)-2,2-dimethyl-2,3-dihydro-1H-inden-1-yl)carbamate] showed an IC50 of 10.8 nM.
`COc1c(Cl)ccc(-c2ccc3c(c2)CC(C)(C)C3NC(=O)O[C@@H]2CN3CCC2CC3)c1Cl` (stereo partly drawn) [Example 162, (S)-quinuclidin-3-yl (5-(2,4-dichloro-3-methoxyphenyl)-2,2-dimethyl-2,3-dihydro-1H-inden-1-yl)carbamate] showed an IC50 of 38.8 nM.
In the case of `CCCc1ccc(-c2ccc3c(c2)CC(C)(C)C3NC(=O)O[C@@H]2CN3CCC2CC3)cc1` (stereo partly drawn) [Example 163, (S)-quinuclidin-3-yl (2,2-dimethyl-5-(4-propylphenyl)-2,3-dihydro-1H-inden-1-yl)carbamate], the IC50 is reported as 12.2 nM.
In the case of `CCCCc1ccc(-c2ccc3c(c2)CC(C)(C)C3NC(=O)O[C@@H]2CN3CCC2CC3)cc1` (stereo partly drawn) [Example 164, (S)-quinuclidin-3-yl (5-(4-butylphenyl)-2,2-dimethyl-2,3-dihydro-1H-inden-1-yl)carbamate], the IC50 is reported as 6.5 nM.
With `COc1cccc(-c2ccc3c(c2)CC(C)(C)C3NC(=O)O[C@@H]2CN3CCC2CC3)c1OC` (stereo partly drawn) [Example 165, (S)-quinuclidin-3-yl (5-(2,3-dimethoxyphenyl)-2,2-dimethyl-2,3-dihydro-1H-inden-1-yl)carbamate] the IC50 was 15.6 nM.
With `COc1ccc(-c2ccc3c(c2)CC(C)(C)C3NC(=O)O[C@@H]2CN3CCC2CC3)c(OC)c1` (stereo partly drawn) [Example 166, (S)-quinuclidin-3-yl (5-(2,4-dimethoxyphenyl)-2,2-dimethyl-2,3-dihydro-1H-inden-1-yl)carbamate] the IC50 was 26.3 nM.
For `COc1ccc(OC)c(-c2ccc3c(c2)CC(C)(C)C3NC(=O)O[C@@H]2CN3CCC2CC3)c1` (stereo partly drawn) [Example 167, (S)-quinuclidin-3-yl (5-(2,5-dimethoxyphenyl)-2,2-dimethyl-2,3-dihydro-1H-inden-1-yl)carbamate], the IC50 was 3.8 nM.
With `COc1cccc(OC)c1-c1ccc2c(c1)CC(C)(C)C2NC(=O)O[C@@H]1CN2CCC1CC2` (stereo partly drawn) [Example 168, (S)-quinuclidin-3-yl (5-(2,6-dimethoxyphenyl)-2,2-dimethyl-2,3-dihydro-1H-inden-1-yl)carbamate] the IC50 was 9.6 nM.
For `COc1cc(OC)cc(-c2ccc3c(c2)CC(C)(C)C3NC(=O)O[C@@H]2CN3CCC2CC3)c1` (stereo partly drawn) [Example 169, (S)-quinuclidin-3-yl (5-(3,5-dimethoxyphenyl)-2,2-dimethyl-2,3-dihydro-1H-inden-1-yl)carbamate], the IC50 was 9.8 nM.
For `CCOc1ccc(-c2ccc3c(c2)CC(C)(C)C3NC(=O)O[C@@H]2CN3CCC2CC3)cc1C(F)(F)F` (stereo partly drawn) [Example 170, (S)-quinuclidin-3-yl (5-(4-ethoxy-3-(trifluoromethyl)phenyl)-2,2-dimethyl-2,3-dihydro-1H-inden-1-yl)carbamate], the IC50 was 13 nM.
`COc1cc(F)c(-c2ccc3c(c2)CC(C)(C)C3NC(=O)O[C@@H]2CN3CCC2CC3)cc1F` (stereo partly drawn) [Example 171, (S)-quinuclidin-3-yl (5-(2,5-difluoro-4-methoxyphenyl)-2,2-dimethyl-2,3-dihydro-1H-inden-1-yl)carbamate] showed an IC50 of 17 nM.

Same assay, conditions: read-out: IC50
With `CC1(C)Cc2cc(-c3cnc4ccccc4c3)ccc2C1NC(=O)O[C@@H]1CN2CCC1CC2` (stereo partly drawn) [Example 143, (S)-quinuclidin-3-yl (2,2-dimethyl-5-(quinolin-3-yl)-2,3-dihydro-1H-inden-1-yl)carbamate] the IC50 was 25.2 nM.

— patent publication US12522602B2, “Derivatives having 2,3-dihydro-1H-indene or 2,3-dihydrobenzofuran moiety or pharmaceutically acceptable salt thereof and pharmaceutical compositions comprising the same” (YUHAN CORPORATION, priority 2019, dated 2026)
